For orientation: EC50 means the concentration that produces a half-maximal response.

EC50 data for 34 compounds are collected here from patent publication US10183919B2 (priority 2014, dated 2019).

Where two headings read alike, the source gives them in different places.

The target of the assay is T1, Human MOR (Homo sapiens, UniProt P35372).
T1 construct: expressed in transfected cells; host or cells: HEK-293T
In words: cell-based. The source says:
Transfection. Human or mouse MOR cDNA was transfected alongside GαoB with RLuc8 inserted at position 91 (GαoB-RLuc8), Gβ1 (β1), and Gγ2 fused to the full-length mVenus at its N terminus (mVenus-γ2) into HEK-293T cells (5×10^6 cells/plate) in 10-cm dishes using PEI (Polysciences Inc.; Warrington, Pa.) in a 1:1 ratio diluted in Opti-MEM (Life Technologies Corp.; Grand Island, N.Y.) to assay for G protein activation as described previously (Rives, M.-L. et al. J. Biol. Chem. 2012, 287, 27050-4; Negri, A.; Rives, M.-L.; Caspers, M. J. et al. J. Chem. Inf. Model. 2013, 53, 521-526). Cells were maintained in the Dulbecco's Modified Eagle Medium (high glucose #11965; Life Technologies) supplemented with 10% FBS (Premium Select, Atlanta Biologicals; Atlanta, Ga.) and 100 U/mL penicillin and 100 μg/mL streptomycin (#15140, Life Technologies). After 24 hours the media was changed, and the experiment was performed 24 hours later (48 hours after transfection).
BRET. Transfected cells were dissociated and resuspended in phosphate-buffered saline (PBS). Approximately 200,000 cells/well were added to a black-framed, white well 96-well plate (#60050; Perkin Elmer; Waltham, Mass.). The microplate was centrifuged and the cells were resuspended in PBS. Then 5 μM of the luciferase substrate coelenterazine H was added to each well for 5 minutes. Following coelenterazine H addition, ligands were added and the BRET signal was measured at 5 minutes on a PHERAstar FS plate reader. Quantification of the BRET signal required calculating the ratio of the light emitted by the energy acceptor, mVenus (510-540 nm), over the light emitted by the energy donor, RLuc8 (485 nm). […] Dose response curves were fit using three-parameter logistics equation in GraphPad Prism 6.

The mark [1] stands for this setting: BRET G protein activation, HEK-293T, mean ± SEM of independent trials, read-out: EC50 Human MOR.

T1 sequence (P35372 whole entry): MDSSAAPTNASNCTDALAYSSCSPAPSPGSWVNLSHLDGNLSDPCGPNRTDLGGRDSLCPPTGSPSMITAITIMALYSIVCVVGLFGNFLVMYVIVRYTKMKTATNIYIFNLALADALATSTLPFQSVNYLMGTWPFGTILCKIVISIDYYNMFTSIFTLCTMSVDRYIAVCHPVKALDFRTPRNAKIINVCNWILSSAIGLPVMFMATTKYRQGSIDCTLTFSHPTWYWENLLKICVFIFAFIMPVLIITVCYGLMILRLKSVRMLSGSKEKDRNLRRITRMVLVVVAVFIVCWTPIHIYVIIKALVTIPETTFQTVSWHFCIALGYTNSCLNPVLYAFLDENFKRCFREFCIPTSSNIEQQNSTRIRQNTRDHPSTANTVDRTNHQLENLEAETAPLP

As for “7-((3-Iodo-6-methyl-5,5-dioxido-6,11-dihydrodibenzo [c,f][1,2]thiazepin-11-yl)amino)heptanoic acid hydrochloride salt [compound 84]”, under setting [1], the EC50 stood at 0.04 µM.
As for `COCCCNC1c2ccccc2N(C)S(=O)(=O)c2cc([S+](C)[O-])ccc21` (mixture of isomers) [compound 55, 11-((3-Methoxypropyl)amino)-6-methyl-3-(methylsulfinyl)-6,11-dihydrodibenzo[c,f][1,2]thiazepine 5,5-dioxide], the EC50 is < 20 µM.
As for `COC(C)CCNC1c2ccccc2N(C)S(=O)(=O)c2cc(Cl)ccc21` (mixture of isomers) [compound 67, 3-Chloro-11-((3-methoxybutyl)amino)-6-methyl-6,11-dihydrodibenzo [c,f][1,2]thiazepine 5,5-dioxide], the EC50 was < 10 µM.
`COCC(C)CNC1c2ccccc2N(C)S(=O)(=O)c2cc(Cl)ccc21` (mixture of isomers) [compound 68, 3-Chloro-11-((3-methoxy-2-methylpropyl)amino)-6-methyl-6,11-dihydrodibenzo[c,f][1,2]thiazepine 5,5-dioxide]: the EC50 was < 10 µM.
On the same count and under the same terms, next, `CCOC(=O)CCCCCCNC1c2ccccc2S(=O)(=O)N(C)c2ccsc21` (stereo not shown) [compound 6, Ethyl 7-((4-methyl-5,5-dioxido-4,10-dihydrobenzo[f]thieno[3,2-c][1,2]thiazepin-10-yl)amino) heptanoate]: < 10 µM; `COCCCNC1c2ccccc2S(=O)(=O)N(C)c2ccsc21` (stereo not shown) [compound 7, 10-((3-Methoxypropyl)amino)-4-methyl-4,10-dihydrobenzo[f]thieno[3,2-c][1,2]thiazepine 5,5-dioxide]: < 10 µM.
On to `COCCCNC1c2ccccc2N(C)S(=O)(=O)c2ccccc21` (stereo not shown) [compound 10, 11-((3-Methoxypropyl)amino)-6-methyl-6,11-dihydrodibenzo[c,f][1,2]thiazepine 5,5-dioxide], for which the EC50 was < 10 µM.
With `COCCCNC1c2cc(Br)ccc2N(C)S(=O)(=O)c2cc(Cl)ccc21` (stereo not shown) [compound 11], the EC50 was < 10 µM.
As for `CC(=O)OCCCCCCNC1c2ccccc2N(C)S(=O)(=O)c2cc(Cl)ccc21` (stereo not shown) [compound 13, 6-((3-Chloro-6-methyl-5,5-dioxido-6,11-dihydrodibenzo[c,f][1,2]thiazepin-11-yl)amino)hexyl acetate], the EC50 was < 10 µM.
Consider `CCOC(=O)CCCCCCNC1c2ccccc2N(C)S(=O)(=O)c2cc(C)ccc21` (stereo not shown) [compound 14, Ethyl 7-((3,6-dimethyl-5,5-dioxido-6,11-dihydrodibenzo[c,f][1,2]thiazepin-11-yl)amino) heptanoate], for which the EC50 is < 10 µM.
Turning to `COCCCNC1c2ccccc2N(C)S(=O)(=O)c2cc(C)ccc21` (stereo not shown) [compound 15, 11-((3-Methoxypropyl)amino)-3,6-dimethyl-6,11-dihydrodibenzo[c,f][1,2]thiazepine 5,5-dioxide], the EC50 is < 10 µM.
For `Cc1ccc2c(c1)S(=O)(=O)N(C)c1ccccc1C2NCCCCCCC(=O)O` (stereo not shown) [compound 16], the EC50 was < 10 µM.
For `CCOC(CCCNC1c2ccccc2N(C)S(=O)(=O)c2cc(Cl)ccc21)OCC` (stereo not shown) [compound 24, 3-Chloro-11-((4,4-diethoxybutyl)amino)-6-methyl-6,11-dihydrodibenzo[c,f][1,2]thiazepine 5,5-dioxide], the EC50 was < 10 µM.
In turn, `CN1c2ccccc2C(NCCOCCO)c2ccc(Cl)cc2S1(=O)=O` (stereo not shown) [compound 25, 3-Chloro-11-((2-(2-hydroxyethoxy)ethyl)amino)-6-methyl-6,11-dihydrodibenzo[c,f][1,2]thiazepine 5,5-dioxide] came in with an EC50 of 8.59 ± 0.5 µM.
Turning to `CCCCCCCNC1c2ccccc2N(C)S(=O)(=O)c2cc(Cl)ccc21` (stereo not shown) [compound 26, 3-Chloro-11-(heptylamino)-6-methyl-6,11-dihydrodibenzo [c,f][1,2]thiazepine 5,5-dioxide], the EC50 was < 10 µM.
In the case of `COCCCNC1c2ccccc2N(C)S(=O)(=O)c2cc(OC)ccc21` (stereo not shown) [compound 27, 3-Methoxy-11-((3-methoxypropyl)amino)-6-methyl-6,11-dihydrodibenzo [c,f][1,2]thiazepine 5,5-dioxide], the EC50 was < 10 µM.
With `CN1c2ccccc2C(NCCCC(F)(F)F)c2ccc(Cl)cc2S1(=O)=O` (stereo not shown) [compound 28, 3-Chloro-6-methyl-11-((4,4,4-trifluorobutyl)amino)-6,11-dihydrodibenzo [c,f][1,2]thiazepine 5,5-dioxide], the EC50 is < 10 µM.
Take `COCCCNC1c2ccccc2N(C)S(=O)(=O)c2cc(Oc3ccccc3)ccc21` (stereo not shown) [compound 29, 11-((3-Methoxypropyl)amino)-6-methyl-3-phenoxy-6,11-dihydrodibenzo [c,f][1,2]thiazepine 5,5-dioxide]: the EC50 was < 10 µM.
Turning to `CN1c2ccccc2C(NCCCCCO)c2ccc(Cl)cc2S1(=O)=O` (stereo not shown) [compound 30, 3-Chloro-11-((5-hydroxypentyl)amino)-6-methyl-6,11-dihydrodibenzo [c,f][1,2]thiazepine 5,5-dioxide], the EC50 is > 50 µM.
Still for that read-out and setting: next, `CN1c2ccccc2C(NCCCC2OCCCO2)c2ccc(Cl)cc2S1(=O)=O` (stereo not shown) [compound 31, 11-((3-(1,3-Dioxan-2-yl)propyl)amino)-3-chloro-6-methyl-6,11-dihydrodibenzo[c,f][1,2]thiazepine 5,5-dioxide]: < 10 µM.
As to `COCCCCCNC1c2ccccc2N(C)S(=O)(=O)c2cc(Cl)ccc21` (stereo not shown) [compound 32, 3-Chloro-11-((5-methoxypentyl)amino)-6-methyl-6,11-dihydrodibenzo [c,f][1,2]thiazepine 5,5-dioxide], the EC50 was determined as 0.563 ± 0.247 µM.
Still for that read-out and setting: next, `CSCCCNC1c2ccccc2N(C)S(=O)(=O)c2cc(Cl)ccc21` (stereo not shown) [compound 33, 3-Chloro-6-methyl-11-((3-(methylthio)propyl)amino)-6,11-dihydrodibenzo[c,f][1,2]thiazepine 5,5-dioxide]: < 10 µM.
Regarding `CCOC(=O)CCCCCCNC1c2ccccc2N(C)S(=O)(=O)c2cc(Cl)ccc21` (stereo not shown) [compound 34, Ethyl 7-((3-chloro-6-methyl-5,5-dioxido-6,11-dihydrodibenzo[c,f][1,2]thiazepin-11-yl)amino)heptanoate], the concentration giving a half-maximal response (EC50) worked out at 0.657 ± 0.366 µM.
On the same count and under the same terms, next, `CC(C)OCCCNC1c2ccccc2N(C)S(=O)(=O)c2cc(Cl)ccc21` (stereo not shown) [compound 35, 3-Chloro-11-((3-isopropoxypropyl)amino)-6-methyl-6,11-dihydrodibenzo [c,f][1,2]azepine 5,5-dioxide]: < 10 µM; `COCCOCCNC1c2ccccc2N(C)S(=O)(=O)c2cc(Cl)ccc21` (stereo not shown) [compound 36, 3-Chloro-11-((2-(2-methoxyethoxy)ethyl)amino)-6-methyl-6,11-dihydrodibenzo[c,f][1,2]thiazepine 5,5-dioxide]: < 10 µM.
As for `CCOCCCNC1c2ccccc2N(C)S(=O)(=O)c2cc(Cl)ccc21` (stereo not shown) [compound 37, 3-Chloro-11-((3-ethoxypropyl)amino)-6-methyl-6,11-dihydrodibenzo [c,f][1,2]thiazepine 5,5-dioxide], the EC50 under setting [1] amounted to 0.893 ± 0.147 µM.
In the case of `COCCCCNC1c2ccccc2N(C)S(=O)(=O)c2cc(Cl)ccc21` (stereo not shown) [compound 39, 3-Chloro-11-((4-methoxybutyl)amino)-6-methyl-6,11-dihydrodibenzo [c,f][1,2]thiazepine 5,5-dioxide], the EC50 was < 10 µM.
Regarding `COCCCNC1c2ccccc2N(C)S(=O)(=O)c2cc(F)ccc21` (stereo not shown) [compound 40, 3-Fluoro-11-((3-methoxypropyl)amino)-6-methyl-6,11-dihydrodibenzo[c,f] [1,2]thiazepine 5,5-dioxide], the EC50 came to 5.53 ± 0.25 µM.
Still for that read-out and setting: next, `CCOC(=O)CCCCCCNC1c2ccccc2N(C)S(=O)(=O)c2cc(F)ccc21` (stereo not shown) [compound 41, Ethyl 7-((3-fluoro-6-methyl-5,5-dioxido-6,11-dihydrodibenzo[c,f][1,2]thiazepin-11-yl)amino)heptanoate]: 2.04 ± 0.334 µM; `COCCNC1c2ccccc2N(C)S(=O)(=O)c2cc(Cl)ccc21` (stereo not shown) [compound 42, 3-Chloro-11-((2-methoxyethyl)amino)-6-methyl-6,11-dihydrodibenzo [c,f][1,2]thiazepine 5,5-dioxide]: < 10 µM.
With `COCCCNC1c2ccccc2S(=O)(=O)N(C)c2c(Br)csc21` (stereo not shown) [compound 43, 3-Bromo-10-((3-methoxypropyl)amino)-4-methyl-4,10-dihydrobenzo[f]thieno[3,2-c][1,2]thiazepine 5,5-dioxide], the EC50 was < 20 µM.
Same read-out and setting: next, `CN1c2ccccc2C(NCC2CCOC2)c2ccc(Cl)cc2S1(=O)=O` (stereo not shown) [compound 46]: < 10 µM.
Take `CN1CCCC1CCNC1c2ccccc2N(C)S(=O)(=O)c2cc(Cl)ccc21` (stereo not shown) [compound 47]: the EC50 was < 20 µM.
In the case of `COCCCNC1c2ccccc2N(C)S(=O)(=O)c2cc(I)ccc21` (stereo not shown) [compound 48, 3-Iodo-11-((3-methoxypropyl)amino)-6-methyl-6,11-dihydrodibenzo [c,f][1,2]thiazepine 5,5-dioxide], the EC50 was 0.0152 ± 0.0069 µM.
